Our source for the Km values is PMC5938755 (Biochemistry, 2018).

This assay has as its target phosphotriesterase from Sphingobium sp. TCM1 (Sb-PTE) (Sphingobium sp. TCM1, UniProt A0A077JBW9). The experiment in a line: steady-state kinetics, release of p-nitrophenol. It counts as biochemical. The following applies: 50 mM HEPES/K+, pH 8.5, 30 °C; only aryl ester hydrolysis followed.

SMILES strings stand for the structures.

With `CCOP(=O)(OCC)Oc1ccc([N+](=O)[O-])cc1` [compound 11, paraoxon], the Km (usually the concentration of substrate that gives half-maximal velocity) turned out to be 83 ± 9 µM. In the case of `COP(=O)(OC)Oc1ccc([N+](=O)[O-])cc1` [compound 3, dimethyl p-nitrophenyl phosphate], the Km worked out at 760 ± 50 µM.
